How the values were obtained:
[1] = target: T1, PTK2-phosphorylation at tyrosine 397 (pY397) (Homo sapiens, UniProt Q05397); assay: Phospho-PTK2 (pY397) Assay in PC-3 cells; assay type: cell-based; details: PC-3 prostate carcinoma cells, 2 h incubation; read-out: PC3pPTK2 Y397 EC50
T1 construct: endogenous in cells; host or cells: PC-3 (ATCC CRL-1435)
Procedure: This cellular test is used to determine the influence of PTK2-inhibitors on the state of the PTK2-phosphorylation at tyrosine 397 (pY397).
PC-3 cells (prostate carcinoma, ATCC CRL-1435) are grown in cell culture flasks (175 cm^2) with F12 Kaighn's Medium (Gibco, No.: 21127) with the addition of 10% foetal calf serum (Invitrogen, No.: 16000-044). The cultures are incubated in the incubator at 37° C. and 5% CO2 and run twice a week.
For the test, 2×10^4 cells pro well/[…] are plated out in 96-well microtitre plates (Costar, No.: 3598) and incubated overnight in the incubator at 37° C. and 5% CO2. The test compounds (10 μL from serial dilution) are added the next day. The concentration of the test compounds usually covers a range of 50 μM and 0.8 nM. The test compounds (stock solution: 10 mM in 100% DMSO) are diluted in medium/medium 10% DMSO such that the final concentration is 1% DMSO. The cells are then incubated in the incubator at 37° C. and 5% CO2 for 2 h. Then the culture supernatant is removed and the cells are fixed with 150 μL 4% formaldehyde in D-PBS for 20 min at RT. The cell lawn is washed five times with 200 μL 0.1% Triton X-100 in D-PBS for 5 min in each case and then incubated for 90 min with blocking buffer (5% skimmed milk powder (Maresi Fixmilch) in TBST (25 mM Tris/HCl, pH 8.0, 150 mM NaCl, 0.05% Tween 20). The blocking buffer is replaced by 50 μL of the first antibody anti-phospho PTK2 [pY397] rabbit monoclonal (Invitrogen/Biosource, No.: 44-625G), which is diluted 1:200 in blocking buffer. For control purposes, alternatively a PTK2 [total] antibody (clone 4.47 mouse monoclonal, Upstate, No.: 05-537), diluted 1:400 in blocking buffer is used. This incubation is carried out at 4° C. overnight. Then the cell lawn is washed five times with 100 μL of 0.1% Tween in D-PBS for 5 min in each case and 50 μL/well of second antibody are added. In order to detect bound phospho-PTK2 [pY397] antibody a goat-anti-rabbit antibody is used which is coupled with horseradish peroxidase (Dako, No.: P0448; 1:500 dilution in blocking buffer). In order to detect bound PTK2 [total]-antibodies a rabbit-anti-mouse antibody is used, which is also coupled with horseradish peroxidase (Dako, No.: PO161; 1:1000 dilution in blocking buffer). This incubation is carried out for 1 h at RT with gentle shaking. The cell lawn is then again washed five times with 100 μL of 0.1% Tween in D-PBS for 5 min in each case. […] The EC50 values are determined from concentration-activity analyses by iterative calculation with the aid of a sigmoidal curve analysis algorithm (FIFTY, based on GraphPAD Prism Version 3.03) with a variable Hill coefficient.

PTK2 = target: T2, PTK2 (Homo sapiens, UniProt Q05397); assay: PTK2 Enzyme Test (DELFIA assay, poly-Glu-Tyr substrate); assay type: biochemical; details: active PTK2 enzyme, 50 μM ATP in ATP Mix, 1 h pre-incubation
T2 construct: purchased Invitrogen PV3832
T2 sequence (Q05397 whole entry): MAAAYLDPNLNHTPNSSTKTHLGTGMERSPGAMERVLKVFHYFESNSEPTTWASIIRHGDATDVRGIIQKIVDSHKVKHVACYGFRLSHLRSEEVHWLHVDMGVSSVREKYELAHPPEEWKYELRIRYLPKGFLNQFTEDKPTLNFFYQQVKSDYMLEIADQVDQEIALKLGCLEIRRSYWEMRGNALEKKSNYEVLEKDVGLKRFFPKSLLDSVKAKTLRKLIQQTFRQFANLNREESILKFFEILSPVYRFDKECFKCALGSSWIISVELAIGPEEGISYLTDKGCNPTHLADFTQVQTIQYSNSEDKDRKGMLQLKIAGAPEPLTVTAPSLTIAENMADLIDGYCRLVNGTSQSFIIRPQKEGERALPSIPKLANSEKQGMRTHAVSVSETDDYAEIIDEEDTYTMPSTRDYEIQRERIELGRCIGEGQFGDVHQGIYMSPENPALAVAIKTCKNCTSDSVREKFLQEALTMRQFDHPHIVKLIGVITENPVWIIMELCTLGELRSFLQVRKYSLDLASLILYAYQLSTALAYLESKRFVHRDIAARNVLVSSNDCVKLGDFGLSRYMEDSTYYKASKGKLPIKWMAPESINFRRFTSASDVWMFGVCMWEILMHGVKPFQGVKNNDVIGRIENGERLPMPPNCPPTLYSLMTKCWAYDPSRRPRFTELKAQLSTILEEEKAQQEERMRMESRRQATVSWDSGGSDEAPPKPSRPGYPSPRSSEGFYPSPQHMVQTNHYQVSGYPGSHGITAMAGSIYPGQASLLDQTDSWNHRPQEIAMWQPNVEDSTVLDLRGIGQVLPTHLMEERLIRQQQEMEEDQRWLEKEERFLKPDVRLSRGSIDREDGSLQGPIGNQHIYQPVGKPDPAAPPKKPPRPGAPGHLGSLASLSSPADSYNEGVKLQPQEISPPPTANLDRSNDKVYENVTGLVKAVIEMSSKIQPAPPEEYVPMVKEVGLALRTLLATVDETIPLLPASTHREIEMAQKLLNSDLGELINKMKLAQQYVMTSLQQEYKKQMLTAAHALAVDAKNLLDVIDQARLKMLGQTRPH
Procedure: This test uses active PTK2 enzyme (Invitrogen Code PV3832) and poly-Glu-Tyr (4:1, Sigma P-0275) as the kinase substrate. The kinase activity is detected by means of the phosphorylation of the substrate in a DELFIA™ assay. The phosphorylated substrate is detected with the Europium-labelled phosphotyrosine antibody PY20 (Perkin Elmer, No.: AD0038).
In order to determine concentration-activity curves with PTK2-inhibitors the compounds are serially diluted in 10% DMSO/H2O and 10 μL of each dilution are dispensed per well in a 96-well microtitre plate (clear U-shaped base plate, Greiner No. 650101) (the inhibitors are tested in duplicates) and mixed with 10 μL/well of PTK2 kinase (0.01 μg/well). PTK2 kinase is diluted accordingly beforehand with kinase dilution buffer (20 mM TRIS/HCl pH 7.5, 0.1 mM EDTA, 0.1 mM EGTA, 0.286 mM sodium orthovanadate, 10% glycerol with the addition of freshly prepared BSA (fraction V 1 mg/mL) and DTT (1 mM)). The test compound and the PTK2 kinase are pre-incubated for 1 h at RT and shaken at 500 rpm. Then 20 μL ATP Mix (30 mM TRIS/HCl pH 7.5, 0.02% Brij, 0.2 mM sodium orthovanadate, 10 mM magnesium acetate, 0.1 mM EGTA, 1× Phosphatase Inhibitor Cocktail 1 (Sigma, No.: P2850), 50 μM ATP (Sigma, No.: A3377; 15 mM stock solution)) are added. The reaction is started by the addition of 10 μL/well of poly (Glu,Tyr) substrate (25 μg/well poly (Glu,Tyr), 0.05 μg/well biotinylated poly (Glu,Tyr) dissolved in 250 mM TRIS/HCl pH 7.5, 9 mM DTT)—the final concentration of DMSO is 2%. After 1 h kinase reaction (the plates are shaken at 500 rpm), the reaction is stopped by the addition of 12 μL/well of 100 mM EDTA, pH 8. And shaken for a further 5 min at RT (500 U/min).
55 μL of the reaction mixture are transferred into a streptavidin plate (Strepta Well High Bind (transparent, 96-well) made by Roche, No.: 11989685001) and incubated for 1 h at RT (shaking at 500 rpm). Then the microtitre plate is washed three times with 200 μL/well D-PBS (Invitrogen, No.:14190). 100 μL of 1:2000 diluted DELFIA Eu-N1 Anti-Phosphotyrosine PY20 antibody (Perkin Elmer, No.: AD0038, 1:2000 diluted in DELFIA test buffer (Perkin Elmer, No.: 1244-111)) is then added and it is incubated for 1 h at RT (shaking at 500 rpm). Then the plate is washed three times with 200 μL/well DELFIA washing buffer (Perkin Elmer, No.: 1244-114), 200 μL/well strengthening solution (Perkin Elmer, No.: 1244-105) is added and the whole is incubated for 10 min at RT (shaking at 300 rpm).
The time-delayed europium fluorescence is then measured in a microtitre plate reader (Victor, Perkin Elmer). The positive control consists of wells that contain solvent (2% DMSO in test buffer) and display uninhibited kinase activity. Wells that contain test buffer instead of enzyme act as a control for the background kinase activity.
The IC50 values are determined from concentration-activity analyses by iterative calculation using a sigmoidal curve analysis algorithm (FIFTY, based on GraphPAD Prism Version 3.03) with a variable Hill coefficient.

T1 sequence (Q05397 whole entry): as above

Structure (SMILES): COc1cc(C(=O)NC2CCC(NS(C)(=O)=O)CC2)ccc1Nc1ncc(C(F)(F)F)c(NCc2ccc(C)cc2N(C)S(C)(=O)=O)n1 (stereo not shown) [Example 27]
- EC50 [1]: 0.27 nM
- IC50 (PTK2): 4 nM

Structure (SMILES): COc1cc(C(=O)N[C@H]2CN3CCC2CC3)ccc1Nc1ncc(C(F)(F)F)c(NCc2ccc(C)cc2N(C)S(C)(=O)=O)n1 [Example 28]
- EC50 [1]: 0.27 nM
- IC50 (PTK2): 4 nM

Structure (SMILES): COc1ccc(CNc2nc(Nc3cc(F)c(C(=O)N[C@H]4CCN(C)C4)cc3OC)ncc2C(F)(F)F)c(N(C)S(C)(=O)=O)c1 [Example 29]
- EC50 [1]: 0.29 nM
- IC50 (PTK2): 2 nM

Structure (SMILES): COc1cc(C(=O)NC2CCN(CC3CC3)CC2)ccc1Nc1ncc(C(F)(F)F)c(NCc2ccc(C)cc2N(C)S(C)(=O)=O)n1 [Example 30]
- EC50 [1]: 0.29 nM
- IC50 (PTK2): 4 nM

Structure (SMILES): COc1cc(C(=O)NC2CCC(N(C)C(C)C)CC2)ccc1Nc1ncc(C(F)(F)F)c(NCc2ccc(C)cc2N(C)S(C)(=O)=O)n1 (stereo not shown) [Example 31]
- EC50 [1]: 0.29 nM
- IC50 (PTK2): 1 nM

Structure (SMILES): COc1cc(N2CCN(C3COC3)CC2)ccc1Nc1ncc(C(F)(F)F)c(NCc2ccc(C)cc2N(C)S(C)(=O)=O)n1 [Example 32]
- EC50 [1]: 0.3 nM
- IC50 (PTK2): 4 nM

Structure (SMILES): COc1cc(N2CCN(CC(=O)N(C)C)CC2)ccc1Nc1ncc(C(F)(F)F)c(NCc2ccc(C)cc2N(C)S(C)(=O)=O)n1 [Example 33]
- EC50 [1]: 0.3 nM
- IC50 (PTK2): 2 nM

Structure (SMILES): COc1cc(C(N)=O)c(Br)cc1Nc1ncc(C(F)(F)F)c(NCc2ccc(C)cc2N(C)S(C)(=O)=O)n1 [Example 34]
- EC50 [1]: 0.31 nM
- IC50 (PTK2): 3 nM

Structure (SMILES): COc1cc(CNC2CCOCC2)ccc1Nc1ncc(C(F)(F)F)c(NCc2ccc(C)cc2N(C)S(C)(=O)=O)n1 [Example 35]
- EC50 [1]: 0.31 nM
- IC50 (PTK2): 3 nM

Structure (SMILES): COc1cc(C(=O)N[C@@H]2CCN(C)C2)c(F)cc1Nc1ncc(C(F)(F)F)c(NCc2ccc(C)cc2N(C)S(C)(=O)=O)n1 [Example 36]
- EC50 [1]: 0.32 nM
- IC50 (PTK2): 2 nM

Structure (SMILES): COc1cc(C(=O)NC2CCN(C3CC3)CC2)ccc1Nc1ncc(C(F)(F)F)c(NCc2ccc(C)cc2N(C)S(C)(=O)=O)n1 [Example 38]
- EC50 [1]: 0.35 nM
- IC50 (PTK2): 4 nM

Structure (SMILES): COc1ccc(CNc2nc(Nc3cc(F)c(C(=O)NC4CCN(C)CC4)cc3OC)ncc2C(F)(F)F)c(N(C)S(C)(=O)=O)c1 [Example 40]
- EC50 [1]: 0.37 nM
- IC50 (PTK2): 1 nM

Structure (SMILES): COc1ccc(CNc2nc(Nc3cc(F)c(C(=O)N[C@@H]4CCN(C)C4)cc3OC)ncc2C(F)(F)F)c(N(C)S(C)(=O)=O)c1 [Example 41]
- EC50 [1]: 0.39 nM
- IC50 (PTK2): 2 nM

Structure (SMILES): COc1cc(N2CCN(CC(=O)N3CCOCC3)CC2)ccc1Nc1ncc(C(F)(F)F)c(NCc2ccc(C)cc2N(C)S(C)(=O)=O)n1 [Example 42]
- EC50 [1]: 0.39 nM
- IC50 (PTK2): 4 nM

Structure (SMILES): COc1cc(C(=O)NC2CCN(C)CC2)c(F)cc1Nc1ncc(C(F)(F)F)c(NCc2ccc(C)cc2N(C)S(C)(=O)=O)n1 [Example 43]
- EC50 [1]: 0.4 nM
- IC50 (PTK2): 2 nM

Structure (SMILES): COc1cc(C(=O)NC2CCN(C3CCOCC3)CC2)ccc1Nc1ncc(C(F)(F)F)c(NCc2ccc(C)cc2N(C)S(C)(=O)=O)n1 [Example 44]
- EC50 [1]: 0.42 nM
- IC50 (PTK2): 2 nM

Structure (SMILES): CCN1CCC[C@H]1CNC(=O)c1ccc(Nc2ncc(C(F)(F)F)c(NCc3ccc(C)cc3N(C)S(C)(=O)=O)n2)c(OC)c1 [Example 45]
- EC50 [1]: 0.44 nM
- IC50 (PTK2): 3 nM

Structure (SMILES): COc1cc(C(=O)N[C@H]2CCCN(C3CCCC3)C2)ccc1Nc1ncc(C(F)(F)F)c(NCc2ccc(C)cc2N(C)S(C)(=O)=O)n1 [Example 47]
- EC50 [1]: 0.5 nM
- IC50 (PTK2): 6 nM

Structure (SMILES): COc1cc(C(=O)NC2CCC(NC(C)=O)CC2)ccc1Nc1ncc(C(F)(F)F)c(NCc2ccc(C)cc2N(C)S(C)(=O)=O)n1 (stereo not shown) [Example 48]
- EC50 [1]: 0.51 nM
- IC50 (PTK2): 4 nM

Structure (SMILES): COc1cc(C(=O)NC2CCN3CCCC3C2)ccc1Nc1ncc(C(F)(F)F)c(NCc2ccc(C)cc2N(C)S(C)(=O)=O)n1 (stereo not shown) [Example 49]
- EC50 [1]: 0.51 nM
- IC50 (PTK2): 4 nM

Structure (SMILES): CCc1cc(C(=O)NC2CCN(C)CC2)ccc1Nc1ncc(C(F)(F)F)c(NCc2ccc(C)cc2N(C)S(C)(=O)=O)n1 [Example 50]
- EC50 [1]: 0.52 nM
- IC50 (PTK2): 2 nM

Structure (SMILES): COc1cc(C(=O)NC2CCC(N(C)C)CC2)ccc1Nc1ncc(C(F)(F)F)c(NCc2ccc(C)cc2N(C)S(C)(=O)=O)n1 (stereo not shown) [Example 51]
- EC50 [1]: 0.53 nM
- IC50 (PTK2): 1 nM

Structure (SMILES): COc1cc(C(=O)NC2CCN(C)CC2)ccc1Nc1ncc(C(F)(F)F)c(NCc2ccc(F)cc2N(C)S(C)(=O)=O)n1 [Example 52]
- EC50 [1]: 0.54 nM
- IC50 (PTK2): 1 nM

Structure (SMILES): COc1cc(C(=O)N[C@H]2CCCN(C3CCOCC3)C2)ccc1Nc1ncc(C(F)(F)F)c(NCc2ccc(C)cc2N(C)S(C)(=O)=O)n1 [Example 53]
- EC50 [1]: 0.54 nM
- IC50 (PTK2): 5 nM

Structure (SMILES): CNC(=O)c1cc(OC)c(Nc2ncc(C(F)(F)F)c(NCc3ccc(C)cc3N(C)S(C)(=O)=O)n2)cc1C [Example 54]
- EC50 [1]: 0.55 nM
- IC50 (PTK2): 3 nM

Structure (SMILES): COc1cc(C(=O)NC2CCN(c3ccccc3)CC2)ccc1Nc1ncc(C(F)(F)F)c(NCc2ccc(C)cc2N(C)S(C)(=O)=O)n1 [Example 55]
- EC50 [1]: 0.56 nM
- IC50 (PTK2): 11 nM

Structure (SMILES): COc1cc(CN2CCCC2)ccc1Nc1ncc(C(F)(F)F)c(NCc2ccc(C)cc2N(C)S(C)(=O)=O)n1 [Example 56]
- EC50 [1]: 0.56 nM
- IC50 (PTK2): 2 nM

Structure (SMILES): COc1ccc(CNc2nc(Nc3ccc(C(=O)N[C@H]4CC[C@H](N5CCOCC5)CC4)cc3OC)ncc2C(F)(F)F)c(N(C)S(C)(=O)=O)c1 [Example 57]
- EC50 [1]: 0.57 nM
- IC50 (PTK2): 2 nM

Structure (SMILES): COc1cc(C(=O)N[C@@H]2CCN(C)C2)c(Cl)cc1Nc1ncc(C(F)(F)F)c(NCc2ccc(C)cc2N(C)S(C)(=O)=O)n1 [Example 58]
- EC50 [1]: 0.59 nM
- IC50 (PTK2): 3 nM
